In PMC10112268, “Inhibition of Human Coronaviruses by Combinations of Host-Targeted and Direct-Acting Antivirals” (Antimicrobial Agents and Chemotherapy, 2023):
Where two headings read alike, the source gives them in different places.

Columns and labels:
HCoV-229E-GFP [1] = test: Direct virucidal effect on virus particles; details: 10^5 PFU, 1 h at room temperature; LG 0 to 300 μM, VPA 0 to 300 mM
SARS-CoV-2 = test: Direct virucidal effect on virus particles; details: 10^5 PFU, 1 h at room temperature; LG 0 to 300 μM, VPA 0 to 300 mM
HCoV-229E-GFP [2] = test: microbe, parasite or virus in culture; format: cell-based; details: for IC50: Human coronavirus 229E
HCoV-OC43 [3] = test: Time of addition assay; format: cell-based; details: for IC50: 48 hpi
in vitro [4] = details: human
FMDV = details: mouse, cited from earlier work
[5] = long-term toxicity studies in rats and mice; cited from earlier work
in vitro [6] = details: human, CC50 (MTT assay), HCT-8
in vitro [7] = details: African green monkey
TGEV = test: Antiviral effect against TGEV in WSL or ST cells, plaque assay on ST; format: cell-based, swine coronavirus TGEV; details: LG in WSL cells, VPA in ST cells
Procedure: Figure S2. […] The inhibitory effect […]
of LG or VPA was assayed on triplicate cultures of TGEV-infected WSL (wild swine macrophage cell line) or ST (swine testis) cells, respectively. After 1 h-pre-incubation with AVs, triplicate cultures were infected with the corresponding virus, at a MOI of 2 PFU/cell, in a reduced volume of medium containing the AV, for 2h, virus inoculum removed and cells washed twice with medium, before the addition of drug-containing fresh medium (supplemented with 2% FBS). Cultures were then incubated for 24 h at 37 °C; total virus (intracellular and extracellular) production was evaluated by plaque assay on triplicate cultures of ST cells. Left y-axis represents infectious virus progeny at 24 hpi and right y-axis, cell viability determined by MTT assay of each corresponding cell line. IC50 values and SI values […]
[TGEV titers (PFU/ml): 1.1±0.1 x 108 in the absence of the drugs, […]
(1 picture or pasted object on this page, not shown here)

[8] = system: HCoV-229E, HCoV-OC43, and SARS-CoV-2; test: Antiviral assays, summary over all tested HCoVs; format: cell-based, human coronaviruses
[9] = system: SARS-CoV-2 isolate 39896362_AG (omicron strain); test: microbe, parasite or virus in culture; format: cell-based; details: […], Fig. 1
HCoV-OC43 [10] = test: microbe, parasite or virus in culture; format: cell-based
[11] = system: SARS-CoV-2 isolate MAD6 (Wuhan-Hu-1 strain); test: Time of addition assay; format: cell-based; details: for IC50: 24 hpi, read-out: IC50, SARS-CoV-2 production
SARS-CoV-2 (MAD6) = test: Drug combination (synergy) study, virus yield in Calu3 2B4, CompuSyn; format: cell-based
HCoV-OC43 [12] = test: Direct virucidal effect on virus particles; details: 10^5 PFU, 1 h at room temperature; LG 0 to 300 μM, VPA 0 to 300 mM
HCoV-OC43 [13] = format: cell-based; details: at 32 μM LG; no drug 3.2 ± 0.2 × 10^6
HCoV-229E-GFP [14] = test: Time of addition assay; format: cell-based; details: for IC50: Human coronavirus 229E, 24 hpi
[15] = system: SARS-CoV-2 isolate MAD6 (Wuhan-Hu-1 strain); test: Virus yield inhibition in infected Calu3 2B4 cells, plaque assay on Vero E6; format: cell-based
HCoV-229E-GFP [16] = format: cell-based; details: at 16 μM LG; no drug 3.5 ± 0.6 × 10^6
in vitro [17] = details: human, CC50 (MTT assay), Huh-7

With `CCCCCCCCCCCCOC(=O)c1cc(O)c(O)c(O)c1` [LG, lauryl gallate] the “direct virucidal effect (change in virus titers)” value (HCoV-229E-GFP [1]) was “No decrease in virus titers”, the “direct virucidal effect (change in virus titers)” value (SARS-CoV-2) was “No decrease in virus titers” and the “selectivity index (SI=CC50/IC50)” value (HCoV-229E-GFP [2]) was 79.14. The IC50 (HCoV-229E-GFP [2]; Huh-7, read-out: IC50, virus yield, Huh-7, AV from 1 h before adsorption, 24 hpi, Fig. 1) was 1050 ± 300 nM, the IC50 (HCoV-229E-GFP [2]; Huh-7, read-out: IC50, virus yield, specificity experiment (Fig. 3), Huh-7, 24 hpi) was 1720 nM and the HCoV-229E-GFP titers (HCoV-229E-GFP [2]; at 100 μM, Fig. 3, no drug 4 ± 0.9 × 10^6) was 5 ± 0.2 × 10^2 PFU/mL. The HCoV-229E-GFP titers (HCoV-229E-GFP [2]; at LG 40 μM, 24 hpi, no drug 3 ± 0.5 × 10^6, Fig. 1) was 1.4 ± 0.2 × 10^2 PFU/mL, the IC50 (HCoV-OC43 [3]; Betacoronavirus 1, OC43, read-out: IC50, HCoV-OC43 production, AV added 0 hpi) was 1920 nM and the IC50 (HCoV-OC43 [3]; Betacoronavirus 1, OC43, read-out: IC50, HCoV-OC43 production, AV added 2 hpi) was 2970 nM. For the same compound, the IC50 (HCoV-OC43 [3]; Betacoronavirus 1, OC43, read-out: IC50, HCoV-OC43 production, AV added −3 hpi (1 h before adsorption)) was 1790 nM, the HCoV-OC43 average titers (HCoV-OC43 [3]; at 40 μM LG, average of addition times, no drug 3.5 ± 0.5 × 10^6) was 5 ± 0.01 × 10^1 PFU/mL and the CC50 (in vitro [4]) was 124000 nM. For the same compound, the “toxicity to the animals” value (FMDV; in vivo) was “not found to be toxic”, the “in vivo antiviral effect against FMDV” value (FMDV) was “reducing FMDV-induced mortality and viral load in mice” and the “highest dose at which no effects were observed” value [5] was 1,000 mg kg-1 of feed. For the same compound, the CC50 (in vitro [6]; 24 h cell incubation with AV) was 55000 nM, the CC50 (in vitro [6]; 48 h cell incubation with AV) was 50400 nM and the CC50 (in vitro [7]) was 90900 nM. For the same compound, the “inhibition of TGEV multiplication” value (TGEV) was “inhibited the multiplication”, the “SI values for all tested HCoVs” value [8] was “above 30” and the IC50 ([8]; average over all tested HCoVs, read-out: average IC50 value) was 1600 nM. For the same compound, the IC50 ([8]; range over tested HCoVs, read-out: IC50 values, range over HCoVs) was 1000 to 2000 nM, the IC50 ([9]; Severe acute respiratory syndrome coronavirus 2, Vero C1008, Vero E6, omicron strain, AV from 1 h before adsorption, read-out: IC50, virus yield) was 1360 ± 200 nM and the “SARS-CoV-2 isolate 39896362_AG titers” value ([9]; at LG 64 μM, no drug 1 ± 0.1 × 10^5) was 5 ± 0.01 × 10^1 PFU/mL. The “selectivity index (SI=CC50/IC50)” value (HCoV-OC43 [10]) was 33.74, the IC50 (HCoV-OC43 [10]; Betacoronavirus 1, OC43, Huh-7, read-out: IC50, virus yield, Huh-7, AV from 1 h before adsorption, 48 hpi, Fig. 1) was 1630 ± 600 nM and the IC50 (HCoV-OC43 [10]; Betacoronavirus 1, OC43, Huh-7, read-out: IC50, virus yield, specificity experiment (Fig. 3), Huh-7, 48 hpi) was 1140 nM. The HCoV-OC43 titers (HCoV-OC43 [10]; at 100 μM, Fig. 3, no drug 1.8 ± 0.9 × 10^6) was 5 ± 0.01 × 10^1 PFU/mL, the HCoV-OC43 titers (HCoV-OC43 [10]; at LG 40 μM, 48 hpi, no drug 3.1 ± 0.9 × 10^6, Fig. 1) was 5 ± 0.01 × 10^1 PFU/mL and the IC50 ([11]; Severe acute respiratory syndrome coronavirus 2, AV added 0 hpi) was 2900 nM. For the same compound, the IC50 ([11]; Severe acute respiratory syndrome coronavirus 2, AV added 2 hpi) was 3090 nM, the IC50 ([11]; Severe acute respiratory syndrome coronavirus 2, AV added −2 hpi (1 h before adsorption)) was 2720 nM and the SARS-CoV-2 average titers ([11]; at 100 μM LG, average of addition times, no drug 3.4 ± 0.2 × 10^5) was 5 ± 0.01 × 10^1 PFU/mL. The SARS-CoV-2 titers (SARS-CoV-2 (MAD6); at 16 μM LG, no drug 3.2 ± 0.2 × 10^5) was 6 ± 0.2 × 10^3 PFU/mL, the “average DRI” value (SARS-CoV-2 (MAD6); for the named drug over its combinations, at Fa = 0.5 to 0.95) was 4.25 and the “direct virucidal effect (change in virus titers)” value (HCoV-OC43 [12]) was “No decrease in virus titers”. For the same compound, the HCoV-OC43 titers (HCoV-OC43 [13]) was 2.2 ± 0.2 × 10^3 PFU/mL, the IC50 (HCoV-229E-GFP [14]; read-out: IC50, HCoV-229E-GFP production, AV added 0 hpi) was 1480 nM and the IC50 (HCoV-229E-GFP [14]; read-out: IC50, HCoV-229E-GFP production, AV added 2 hpi) was 2050 nM. For the same compound, the IC50 (HCoV-229E-GFP [14]; read-out: IC50, HCoV-229E-GFP production, AV added −3 hpi (1 h before adsorption)) was 1240 nM, the HCoV-229E-GFP average titers (HCoV-229E-GFP [14]; at 40 μM LG, average of addition times, no drug 4 ± 0.6 × 10^6) was 6 ± 2 × 10^2 PFU/mL and the IC50 ([15]; Severe acute respiratory syndrome coronavirus 2, Calu-3 2B4, read-out: IC50, virus yield, Calu3 2B4, Wuhan-Hu-1 strain, AV from 1 h before adsorption, 24 hpi, Fig. 1) was 2260 ± 500 nM. The SARS-CoV-2 titers ([15]; at 100 μM, Fig. 3, no drug 3.±0.1 × 10^5) was 1 ± 0.1 × 10^2 PFU/mL, the “SARS-CoV-2 isolate MAD6 titers” value ([15]; at LG 100 μM, 24 hpi, no drug 3.4 ± 1 × 10^5, Fig. 1) was 5 ± 0.01 × 10^1 PFU/mL and the HCoV-229E-GFP titers (HCoV-229E-GFP [16]) was 5 ± 0.2 × 10^2 PFU/mL. It also gave a CC50 (in vitro [17]; 24 h cell incubation with AV) of 83100 nM and a CC50 (in vitro [17]; 48 h cell incubation with AV) of 55000 nM.
